Assay results published in patent publication US8957022B2, “Multimeric tie 2 agonists and uses thereof in stimulating angiogenesis” (Sunnybrook Health Sciences Centre, priority 2006, dated 2015).
Blank lines part the entries; values can stand above or below the molecule they belong to. Where no end group is shown, it is not given here. Side-chain parts run from the residue outwards. The star is where a group is joined. Biotin = O=C1N[C@H]2[C@H](CS[C@H]2CCCCC(=O)*)N1; PEO = not defined here

What was measured:
[1] = system: CD1 mice; assay: Matrigel plug angiogenesis assay; assay type: in vivo, mouse
Procedure: To further examine the in vivo angiogenic potential of Vasculotide, a Matrigel assay was performed. More specifically, growth factor reduced Matrigel (BD Biosciences) was impregnated with either clustered Vasculotide or one of several different control factors. These Matrigel samples were injected subcutaneously into the flank region of 3 month old CD1 mice. 14 days post implantation and immediately prior to sacrifice, FITC lectin (100 μg) was injected IV and allowed to circulate for 10 minutes, to facilitate vessel identification and quantification. Plugs were surgically resected and fixed in 4% paraformaldehyde (PFA) for 16 h. Images of vascular topology were taken using a Zeiss dissecting microscope at 4× magnification. Upon fixing, all plugs were whole mount stained with anti-Sma1-Cy3. Plugs were analyzed on a Zeiss Axiovert 100 M confocal microscope (Carl Zeiss) for three dimensional image reconstruction and photos were processed using LSM Image Browser and Adobe Photoshop 7.0. Morphometric quantification of vessel characteristics was performed by skeletonizing confocal image projections with Image Processing Tool Kit 5.0 (IPTK 5.0). Student's t test was used to test the statistical significance with a 95% confidence interval. All experiments were performed with three replicates each, with at least 5 random image stacks.
To more fully address and assign quantitative vessel parameters to the different treatment groups, the plugs were fixed and interrogated with laser confocal microscopy analysis combined with post processing image analysis (Image Processing Tool Kit 5.0, Reindeer Graphics, N.C.). Vessel parameters, including length, number and branch points (nodes) were quantified on at least six representative fields. Statistical analysis was performed by way of unpaired Student's t test. Bar graphs of the number of vessels, vessel length and number of nodes, for each treatment group, are shown in FIGS. 3A, 3B and 3C, respectively. It is noted that poor perfusion of FITC-lecithin into mice harboring 20 nM clustered Vasculotide plus VEGF plugs prevented statistical analysis, therefore bars are the mean of two separate fields. All other bars shown represent mean+/−SD.
Ang 1 has been reported to potentiate the recruitment of myogenic support cells (Suri, C. et al. (1996) Cell 87:1171-1180) and inhibit VEGF induced vascular permeability through mechanisms that are not well understood (Thurston, G. et al. (2000) Nat. Med. 6:460-463). To determine if Vasculotide, like Ang 1, was capable of initiating pericyte recruitment, whole mount immunofluorescence was performed against smooth muscle actin 1 (Sma1). […] Sma 1 staining was tightly associated with the exterior of the vessels and was enriched on larger vessels.

[2] = system: HUVEC; assay: Modified Boyden chamber migration assay; assay type: cell-based, human; settings: as in Example 4
Procedure: To test if Vasculotide, like Ang 1, was capable of promoting these processes, the effect of Vasculotide on EC migration was tested using a modified Boyden chamber assay. HUVEC were seeded at a density of 8.4×10^4 cells in 500 μl of F12 growth media plus 0.1% FBS in the upper chamber of an 8 μm pore size modified Boyden chamber (Falcon). 500 μl of F12 media plus 0.1% FBS plus various growth factors (Ang 1 (R& D Systems), unclustered or clustered Vasculotide, VEGF (R&D Systems) or clustered Vasculotide in combination with VEGF) or controls were placed in the bottom chamber. Cells were allowed to migrate for 4 hours in a 37° C., 5% CO2 incubator. Nonmigrating cells were scraped off, and filters were fixed in 100% methanol for 5 minutes, stained with Harris' Hematoxylin (BDH) for 10 minutes and washed twice with tap water for 3 minutes each. Filters were then mounted using Aquapolymount mounting medium. Cells that had migrated more than 50% of the way through the pore were scored as positive for migration.
Student's t test was used to test the statistical significance with a 95% confidence interval. Stimulations were performed in triplicate and migrating cells in 6 microscopic fields per replicate were counted.

[3] = system: MMP2; assay: Gelatin zymography of HUVEC conditioned media; assay type: cell-based, human; settings: as in Example 4
Procedure: In vivo, ECs can not migrate until they secrete enzymes necessary to break down components of the extra cellular matrix. Gelatin zymography was employed to determine if clustered Vasculotide promoted secretion of MMP2. To perform the zymography, HUVEC were cultured in F12 media plus 0.1% FBS and stimulated for 16 h with VEGF, unclustered Vasculotide or clustered Vasculotide at various concentrations. Conditioned media was centrifuged to remove cellular debris and prepared for gel electrophoresis using non-reducing conditions. Gels were washed twice for 30 minutes in 2.5% Triton X-100 to remove sodium dodecyl sulfate and were then incubated in substrate buffer (50 mmol/L Tris-HCl, pH 8.8, 5 mmol/L CaCl2) for 16 hours at 37° C. Gels were then stained with 0.5% Coomassie blue in 30% methanol/10% acetic acid for 2 hours at room temperature and destained in 50% methanol/10% acetic acid. The presence of metalloproteinases was indicated by unstained proteolytic zones in the gel.

[4] = system: HUVEC; assay: Serum withdrawal-induced cell death, Cell Death ELISA; assay type: cell-based, human; settings: F12 plus 0.1% FBS, 16 hours; clustered Vasculotide at 500 pM (p=0.002) vs non-treated cells
Procedure: Based on the fact that clustered Vasculotide strongly activates the anti apoptotic protein AKT (see Example 3), the ability of Vasculotide to protect ECs from serum withdrawal-induced death was examined. To do so, HUVEC were maintained in F12 media plus 0.1% FBS for 16 hours in the presence of various concentrations of unclustered or clustered Vasculotide, followed by analysis of cell apoptosis via cell death ELISA. Analysis of apoptosis was performed using Cell Death ELISA Plus (Roche) according to manufacturers' specifications. The results are shown in FIG. 2A, in which values were normalized to basal levels of cell death for HUVECs maintained in full 10% FBS, growth factor supplemented F12 media. The results shown represent the mean of three replicates plus or minus 1 SD. Student's T-test was used for statistical analysis with P value indicated.

[5] = target: Tie 2 (Homo sapiens, UniProt Q02763); assay: Tie 2 activation (pY992 Tie 2 immunoblot) in HUVEC; assay type: cell-based; set-up: downstream signalling pathways in human umbilical vein endothelial cells (HUVEC) (Cambrex, N.J.); host or cells: HUVEC, passage 3-9; settings: avidin alone and unclustered Vasculotide
Procedure: Having established that Vasculotide was able to bind Tie 2 (see Example 2), the ability of Vasculotide, when clustered with avidin in a 4:1 ratio (Vasculotide:avidin), to activate the Tie 2 receptor was tested by examining several well established downstream signalling pathways in human umbilical vein endothelial cells (HUVEC) (Cambrex, N.J.). Such signalling pathways are described in, for example, Kim, I. et al. (2000) Circ. Res. 9:952-959; Fujikawa, K. et al. (1999) Exp. Cell. Res. 2:663-672; Babaei, S. et al. (2003) Am. J. Pathol. 6:1927-1936.
HUVEC were grown on 6-well or 10 cm plates (Nunc) coated with gelatin (Sigma). HUVEC were cultured in F12 growth medium containing 10% fetal bovine serum (FBS), 0.1 mg/ml heparin sulphate, 1× penicillin, 1× streptomycin, 1× glutamine, VEGF 10 ng/ml, EGF 10 ng/ml, bFGF 5 ng/ml. All HUVEC were used between passage 3-9.
(§1) HUVEC were stimulated with one of either Ang 1 (R&D Systems), Vasculotide, avidin or clustered Vasculotide (preclustered with a 4:1 molar ratio of peptide:avidin in PBS for 2 hours at 4° C.) at various doses. Stimulations with Vasculotide were performed in full serum containing growth media for 15 minutes unless otherwise indicated. Cell lysate preparations and immunoblot analysis were performed by standard methods. Antibodies used for immunoblotting (in this and/or subsequent Examples) were monoclonal anti Tie 2 (Pharminogen), polyclonal anti pY992 Tie 2, (Cell Signaling Technology), polyclonal anti MAPK (Cell Signaling Technology), monoclonal anti phospho MAPK (Cell Signaling Technology), polyclonal anti AKT (Cell Signaling Technology), polyclonal anti pS473 AKT (Cell Signaling Technology), monoclonal anti pS1177 eNOS (BD Biosciences), polyclonal anti pY397 FAK (Biosource), polyclonal anti FAK (Santa Cruz), polyclonal anti smooth muscle actin-Cy3 direct conjugate (Dako), polyclonal anti PECAM (Pharminogen) and polyclonal anti smooth muscle actin (Sigma).
To examine Tie 2 activation kinetics, HUVEC were stimulated with native Ang 1 or clustered Vasculotide for various times. Stimulation was performed in 10% FBS. […] Overall, activation of the receptor by either Ang 1 or clustered Vasculotide followed a very similar time course with phosphorylation returning to almost basal levels sometime after 2 hours.

[6] = system: B6.Cg-m(+/+)Lepr(db)/J (db/db) mice; assay: Excisional wound healing in diabetic mice, topical application; assay type: in vivo, mouse; settings: bFGF 10 μg/ml
Procedure: Pathogen free, nine week old B6.Cg-m(+/+)Lepr(db)/J (db/db) mice were purchased from Jackson Laboratories. Circular, full excisional, 6 mm diameter wounds were made, according to animal committee approval guidelines, equal distant apart on the dorsal side of the mice. Various factors were suspended in sterile Intrasite Topical Gel (Smith and Nephew) at noted concentrations. Treatments were as follows: Vehicle n=8, bFGF (10 μg/ml) n=8, clustered Vasculotide (20 nM) n=4, clustered Vasculotide (5 nM) n=4. Preparations were applied at day 0 (time of wounding), day 2, 4 and 6. Standardized images were taken on days 0, 2, 4, 6 and 7 using a Canon EOS digital Rebel camera. Image J (NIH) was used to manually outline wound perimeter from which total pixel counts (wound area) were determined. Mice were sacrificed on day 7 and full wound beds including margin were excised and fixed in 4% PFA. Wounds were cut in half at the widest point and each half was prepared for either paraffin or frozen sections. Wax sections were processed according to standard protocols for H&E and Masson's Trichrome stain. Images were captured using a Leica DMLS compound light microscope and Pixel Link camera at 5× and 20×. Student's t test was used to test the statistical significance.
For histological scoring, sections were fixed in 4% paraformaldehyde, embedded in paraffin and sectioned and stained with H & E and Masson's trichrome. Sections were evaluated by a pathologist for re-epithelialization, granulation tissue formation, and inflammation, with criteria used for scoring skin as follows:
• 0—none • 1—minimal (0-20% regrowth from wound margins) • 2—mild (25% to 50% regrowth) • 3—moderate (>50% regrowth, up to 100% but not >2 cells thick along length) • 4—complete regrowth (epithelium>1 cell thick along length, keratinized) Granulation Tissue (GT) and Neovascularization: • 0—none • 1—minimal (1-3 small, isolated islands of GT at margins of defect) • 2—mild (multifocal, patchy islands of GT underlying tissue defect, <10 new blood vessels) • 3—moderate (locally extensive bands of GT underlying length of defect) • 4—marked (dense bands of GT at margins and underlying length of defect with collagen fibrils and numerous blood vessels) Inflammation (within Defect): • 0—none • 1—minimal (a few scattered neutrophils at margins of defect) • 2—mild (multifocal aggregates of up to 5 neutrophils underlying defect) • 3—moderate (multifocal aggregates of up to 10 neutrophils and occasional macrophages, minimal to mild edema) • 4—marked (locally extensive, dense neutrophilic infiltrates with lesser numbers of macrophages, mild-moderate edema)

[7] = system: focal adhesion kinase (FAK); assay: FAK activation in HUVEC (pY397 FAK immunoblot); assay type: cell-based, human; settings: time course
Procedure: as §1
To examine Tie 2 activation kinetics, HUVEC were stimulated with native Ang 1 or clustered Vasculotide for various times. Stimulation was performed in 10% FBS. […]

Sequence of Tie 2 (Q02763 23-1124): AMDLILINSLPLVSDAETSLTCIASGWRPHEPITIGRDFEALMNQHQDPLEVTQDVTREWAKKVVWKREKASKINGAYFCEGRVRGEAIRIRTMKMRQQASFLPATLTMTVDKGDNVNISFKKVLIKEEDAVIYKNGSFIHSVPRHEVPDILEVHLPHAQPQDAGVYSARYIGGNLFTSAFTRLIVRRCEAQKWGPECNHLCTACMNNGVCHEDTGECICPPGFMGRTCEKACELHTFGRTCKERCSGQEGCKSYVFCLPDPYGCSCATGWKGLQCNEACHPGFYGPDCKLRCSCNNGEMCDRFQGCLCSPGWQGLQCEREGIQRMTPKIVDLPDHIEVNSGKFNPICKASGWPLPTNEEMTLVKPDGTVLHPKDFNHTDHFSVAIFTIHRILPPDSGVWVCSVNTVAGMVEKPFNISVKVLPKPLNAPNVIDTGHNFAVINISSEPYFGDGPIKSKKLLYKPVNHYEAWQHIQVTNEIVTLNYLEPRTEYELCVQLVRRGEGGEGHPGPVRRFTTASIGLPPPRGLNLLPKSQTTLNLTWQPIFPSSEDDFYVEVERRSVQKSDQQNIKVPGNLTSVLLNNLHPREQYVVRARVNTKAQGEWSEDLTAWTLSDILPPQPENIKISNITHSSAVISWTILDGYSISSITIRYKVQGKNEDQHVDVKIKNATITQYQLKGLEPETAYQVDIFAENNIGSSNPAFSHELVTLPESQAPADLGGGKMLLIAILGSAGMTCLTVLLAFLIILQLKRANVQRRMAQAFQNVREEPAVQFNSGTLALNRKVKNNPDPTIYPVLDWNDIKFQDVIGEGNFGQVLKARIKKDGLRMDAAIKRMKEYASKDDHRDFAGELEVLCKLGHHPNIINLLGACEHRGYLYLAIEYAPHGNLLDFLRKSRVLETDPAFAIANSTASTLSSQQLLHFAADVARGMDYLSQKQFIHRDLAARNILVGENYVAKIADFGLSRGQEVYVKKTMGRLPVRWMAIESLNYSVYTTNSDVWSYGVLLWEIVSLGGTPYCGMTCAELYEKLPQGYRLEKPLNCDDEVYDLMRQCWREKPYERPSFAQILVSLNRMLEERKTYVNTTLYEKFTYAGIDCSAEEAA

Molecule: VEGF [reference compound]
Nature of vessels (arborization, tortuosity) ([1]; 14 days post implantation): highly tortuous
Vessel growth in plugs (confocal analysis) ([1]; 14 days post implantation, FITC lectin): robust induction of angiogenesis
Angiogenic response in the membranous capsule surrounding the plugs ([1]; 14 days post implantation, subcutaneous): distinct and robust angiogenic response
Smooth muscle actin 1 (Sma1) staining, pericyte recruitment ([1]; whole mount immunofluorescence): relative absence of Sma1 positive staining cells

Molecule: tetrameric GA3-containing compound: GA3 peptide (SEQ ID NO: 4) conjugated to PEO-maleimide-biotin, clustered with avidin in a 4:1 ratio (C([maleimide-PEO-Biotin])WTIIQRREDGSVDFQRTWKEYK; reading uncertain; also: avidin tetramer, 4 peptides per avidin, printed as Cys-Trp-Thr-Ile-Ile-Gln-Arg-Arg-Glu-Asp-Gly-Ser-Val-Asp-Phe-Gln-Arg-Thr-Trp-Lys-Glu-Tyr-Lys)
Endothelial cell migration (GA3 tetramer) [2]: effective in promoting endothelial cell migration
MMP2 release (GA3 tetramer) [3]: effective in promoting MMP2 release

Molecule: avidin: tetramer agent with four binding sites for biotin, tested alone as control [reference compound]
Apoptosis / survival after serum withdrawal [4]: no effect on survival
Tie 2 phosphorylation without preclustering [5]: only when preclustered with avidin was Vasculotide able to stimulate Tie 2 phosphorylation

Molecule: bFGF: growth factor used as comparator at 10 μg/ml in the wound gel [reference compound]
Wound closure by day 7 [6]: statistically indistinguishable from clustered Vasculotide at 20 nM or 5 nM
Histological differences between vehicle and bFGF ([6]; p=0.0486): existed only at the level of inflammation

Activation of FAK [7]: time dependently activated FAK
B1: Ang 1: angiopoietin 1, protein growth factor ligand for Tie 2 (R&D Systems) (protein, UniProt Q15389 16-498, looked up)
Angiopoietin-1: HIGCSNQRRSPENSGRRYNRIQHGQCAYTFILPEHDGNCRESTTDQYNTNALQRDAPHVEPDFSSQKLQHLEHVMENYTQWLQKLENYIVENMKSEMAQIQQNAVQNHTATMLEIGTSLLSQTAEQTRKLTDVETQVLNQTSRLEIQLLENSLSTYKLEKQLLQQTNEILKIHEKNSLLEHKILEMEGKHKEELDTLKEEKENLQGLVTRQTYIIQELEKQLNRATTNNSVLQKQQLELMDTVHNLVNLCTKEGVLLKGGKREEEKPFRDCADVYQAGFNKSGIYTIYINNMPEPKKVFCNMDVNGGGWTVIQHREDGSLDFQRGWKEYKMGFGNPSGEYWLGNEFIFAITSQRQYMLRIELMDWEGNRAYSQYDRFHIGNEKQNYRLYLKGHTGTAGKQSSLILHGADFSTKDADNDNCMCKCALMLTGGWWFDACGPSNLNGMFYTAGQNHGKLNGIKWHYFKGPSYSLRSTTMMIRPLDF
